# Key:
# [1] = molecular target: Cyclooxygenase (Homo sapiens, UniProt P35354+P23219); assay: In vitro inhibition of Prostaglandin G/H synthase from human polymorphs; assay type: protein assay
# [2] = molecular target: T1, Polyunsaturated fatty acid 5-lipoxygenase (Homo sapiens, UniProt P09917); assay: In vitro inhibition of 5-lipoxygenase from human polymorphs
# T1 sequence (P09917 whole entry): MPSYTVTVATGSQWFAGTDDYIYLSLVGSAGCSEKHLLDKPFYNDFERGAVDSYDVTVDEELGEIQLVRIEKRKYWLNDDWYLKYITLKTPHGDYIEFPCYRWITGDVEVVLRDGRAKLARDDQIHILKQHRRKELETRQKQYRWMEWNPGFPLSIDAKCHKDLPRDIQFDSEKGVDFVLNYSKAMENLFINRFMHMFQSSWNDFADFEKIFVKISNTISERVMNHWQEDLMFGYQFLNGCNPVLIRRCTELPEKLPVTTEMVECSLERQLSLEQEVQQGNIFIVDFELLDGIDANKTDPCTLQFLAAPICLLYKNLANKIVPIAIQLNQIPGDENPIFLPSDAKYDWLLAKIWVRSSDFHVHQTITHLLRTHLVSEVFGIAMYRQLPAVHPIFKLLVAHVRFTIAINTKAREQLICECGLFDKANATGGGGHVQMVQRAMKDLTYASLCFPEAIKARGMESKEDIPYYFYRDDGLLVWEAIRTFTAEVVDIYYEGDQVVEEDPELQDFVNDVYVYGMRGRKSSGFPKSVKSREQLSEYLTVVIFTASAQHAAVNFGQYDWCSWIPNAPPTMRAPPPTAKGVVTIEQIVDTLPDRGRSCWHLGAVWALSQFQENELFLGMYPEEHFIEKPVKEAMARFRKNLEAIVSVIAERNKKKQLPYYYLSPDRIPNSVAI
smiles,measurement,setting,value
CN(O)C(=O)/C=C/c1cccc(Oc2ccccc2)c1,IC50,[1],5000 nM
same,IC50,[2],50 nM
CC(=O)N(O)C/C=C/c1cccc(Oc2ccccc2)c1,IC50,[1],3200 nM
CC(=O)N(O)Cc1ccc(OCc2ccccc2)cc1,IC50,[1],22000 nM
same,IC50,[2],770 nM

# Source: ChEMBL document CHEMBL1124047, “Acetohydroxamic acids as potent, selective, orally active 5-lipoxygenase inhibitors” (J Med Chem, 1988)
